Key:
Test in all cases: relative viability (nuclei count vs DMSO), 5 days (fraction); higher = more cells survive
[1] = system: ABC-1
Procedure, shortened: (§1)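 Cells from lung cancer lines were seeded into 1536-well plates and, one day later, dosed by pin tool. Treatments were either a single drug or a fixed dose of an anchor drug with five library-drug doses (not always all listed) in √10 steps. After 5 days, nuclei were stained in a one-step fixation (final 0.05% Triton X-100, 1% formaldehyde, 1 ug/ml Hoechst) and counted on 4× images, and relative viability is the treated-to-vehicle nuclei ratio, as the median of duplicate plates.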

[2] = system: CAL-12T
Procedure, shortened: as §1

[3] = system: COR-L23
Procedure, shortened: as §1

[4] = system: EKVX
Procedure, shortened: as §1

[5] = system: H3255
Procedure, shortened: as §1

[6] = system: HCC-15
Procedure, shortened: as §1

[7] = system: HCC-827
Procedure, shortened: as §1

[8] = system: LK-2
Procedure, shortened: as §1

[9] = system: NCI-H1355
Procedure, shortened: as §1

[10] = system: NCI-H1437
Procedure, shortened: as §1

[11] = system: NCI-H1563
Procedure, shortened: as §1

[12] = system: NCI-H1734
Procedure, shortened: as §1

[13] = system: NCI-H2228
Procedure, shortened: as §1

[14] = system: NCI-H2405
Procedure, shortened: as §1

[15] = system: NCI-H322M
Procedure, shortened: as §1

[16] = system: NCI-H520
Procedure, shortened: as §1

[17] = system: NCI-H661
Procedure, shortened: as §1

[18] = system: PC-14
Procedure, shortened: as §1

[19] = system: PC-3 [JPC-3]
Procedure, shortened: as §1

[20] = system: RERF-LC-KJ
Procedure, shortened: as §1

[21] = system: SW 1573
Procedure, shortened: as §1

Question: Which results are given for `C=C1C(=O)O[C@@H](CCCCCCCC)[C@@H]1C(=O)O` [C-75] + C[C@]1(O)C[C@@H](c2nc(-c3ccc4ccc(-c5ccccc5)nc4c3)c3c(N)nccn32)C1 [Linsitinib] (partner 1 µM)?
Answer: relative viability ([1]; first compound 0.08 µM): 0.85; relative viability ([1]; first compound 0.253 µM): 0.854; relative viability ([1]; first compound 0.8 µM): 0.705; relative viability ([1]; first compound 2.53 µM): 0.764; relative viability ([1]; first compound 8 µM): 0.552; relative viability ([2]; first compound 0.08 µM): 0.814; relative viability ([2]; first compound 0.253 µM): 1.02; relative viability ([2]; first compound 0.8 µM): 0.751; relative viability ([2]; first compound 2.53 µM): 0.701; relative viability ([2]; first compound 8 µM): 0.792; relative viability ([3]; first compound 0.08 µM): 0.935; relative viability ([3]; first compound 0.253 µM): 0.907; relative viability ([3]; first compound 0.8 µM): 0.856; relative viability ([3]; first compound 2.53 µM): 0.632; relative viability ([3]; first compound 8 µM): 0.909; relative viability ([4]; first compound 0.08 µM): 1.01; relative viability ([4]; first compound 0.253 µM): 1.05; relative viability ([4]; first compound 0.8 µM): 0.906; relative viability ([4]; first compound 2.53 µM): 0.96; relative viability ([4]; first compound 8 µM): 0.908; relative viability ([5]; first compound 0.08 µM): 0.868; relative viability ([5]; first compound 0.253 µM): 1.13; relative viability ([5]; first compound 0.8 µM): 1.01; relative viability ([5]; first compound 2.53 µM): 0.895; relative viability ([5]; first compound 8 µM): 1.16; relative viability ([6]; first compound 0.08 µM): 0.926; relative viability ([6]; first compound 0.253 µM): 0.978; relative viability ([6]; first compound 0.8 µM): 0.924; relative viability ([6]; first compound 2.53 µM): 0.847; relative viability ([6]; first compound 8 µM): 0.902; relative viability ([7]; first compound 0.08 µM): 0.884; relative viability ([7]; first compound 0.253 µM): 0.92; relative viability ([7]; first compound 0.8 µM): 1; relative viability ([7]; first compound 2.53 µM): 0.972; relative viability ([7]; first compound 8 µM): 0.923; relative viability ([8]; first compound 0.08 µM): 0.416; relative viability ([8]; first compound 0.253 µM): 0.785; relative viability ([8]; first compound 0.8 µM): 0.607; relative viability ([8]; first compound 2.53 µM): 0.514; relative viability ([8]; first compound 8 µM): 0.369; relative viability ([9]; first compound 0.08 µM): 0.849; relative viability ([9]; first compound 0.253 µM): 0.803; relative viability ([9]; first compound 0.8 µM): 0.806; relative viability ([9]; first compound 2.53 µM): 0.805; relative viability ([9]; first compound 8 µM): 0.825; relative viability ([10]; first compound 0.08 µM): 1.03; relative viability ([10]; first compound 0.253 µM): 1; relative viability ([10]; first compound 0.8 µM): 1.04; relative viability ([10]; first compound 2.53 µM): 1.01; relative viability ([10]; first compound 8 µM): 1.04; relative viability ([11]; first compound 0.08 µM): 1.24; relative viability ([11]; first compound 0.253 µM): 1.23; relative viability ([11]; first compound 0.8 µM): 1.14; relative viability ([11]; first compound 2.53 µM): 1.28; relative viability ([11]; first compound 8 µM): 1.18; relative viability ([12]; first compound 0.08 µM): 0.876; relative viability ([12]; first compound 0.253 µM): 0.813; relative viability ([12]; first compound 0.8 µM): 0.804; relative viability ([12]; first compound 2.53 µM): 0.622; relative viability ([12]; first compound 8 µM): 0.732; relative viability ([13]; first compound 0.08 µM): 1.03; relative viability ([13]; first compound 0.253 µM): 1.04; relative viability ([13]; first compound 0.8 µM): 0.543; relative viability ([13]; first compound 2.53 µM): 0.594; relative viability ([13]; first compound 8 µM): 0.66; relative viability ([14]; first compound 0.08 µM): 0.882; relative viability ([14]; first compound 0.253 µM): 0.728; relative viability ([14]; first compound 0.8 µM): 0.872; relative viability ([14]; first compound 2.53 µM): 0.967; relative viability ([14]; first compound 8 µM): 0.989; relative viability ([15]; first compound 0.08 µM): 0.887; relative viability ([15]; first compound 0.253 µM): 1.05; relative viability ([15]; first compound 0.8 µM): 0.999; relative viability ([15]; first compound 2.53 µM): 0.816; relative viability ([15]; first compound 8 µM): 1.08; relative viability ([16]; first compound 0.08 µM): 1.1; relative viability ([16]; first compound 0.253 µM): 1.28; relative viability ([16]; first compound 0.8 µM): 0.904; relative viability ([16]; first compound 2.53 µM): 0.906; relative viability ([16]; first compound 8 µM): 0.825; relative viability ([17]; first compound 0.08 µM): 0.504; relative viability ([17]; first compound 0.253 µM): 0.571; relative viability ([17]; first compound 0.8 µM): 0.461; relative viability ([17]; first compound 2.53 µM): 0.491; relative viability ([17]; first compound 8 µM): 0.457; relative viability ([18]; first compound 0.08 µM): 0.956; relative viability ([18]; first compound 0.253 µM): 0.818; relative viability ([18]; first compound 0.8 µM): 1.03; relative viability ([18]; first compound 2.53 µM): 0.778; relative viability ([18]; first compound 8 µM): 0.939; relative viability ([19]; first compound 0.08 µM): 0.939; relative viability ([19]; first compound 0.253 µM): 0.933; relative viability ([19]; first compound 0.8 µM): 0.951; relative viability ([19]; first compound 2.53 µM): 1.02; relative viability ([19]; first compound 8 µM): 1.09; relative viability ([20]; first compound 0.08 µM): 0.912; relative viability ([20]; first compound 0.253 µM): 0.994; relative viability ([20]; first compound 0.8 µM): 0.827; relative viability ([20]; first compound 2.53 µM): 0.739; relative viability ([20]; first compound 8 µM): 0.971; relative viability ([21]; first compound 0.08 µM): 0.819; relative viability ([21]; first compound 0.253 µM): 0.962; relative viability ([21]; first compound 0.8 µM): 0.833; relative viability ([21]; first compound 2.53 µM): 0.615; relative viability ([21]; first compound 8 µM): 0.705

From the supplement of paper PMC10307832
